Measured values: article PMC11519575 (Nature Communications, 2024)

Key:
[1] = biological target: T1, VanAB (Pseudomonas putida, UniProt Q88GI6); test: whole-cell consumption; type: cell-based; conditions: R. eutropha H16 expressing vanAB, sole carbon source, 30 °C
T1 sequence (Q88GI6 1-355): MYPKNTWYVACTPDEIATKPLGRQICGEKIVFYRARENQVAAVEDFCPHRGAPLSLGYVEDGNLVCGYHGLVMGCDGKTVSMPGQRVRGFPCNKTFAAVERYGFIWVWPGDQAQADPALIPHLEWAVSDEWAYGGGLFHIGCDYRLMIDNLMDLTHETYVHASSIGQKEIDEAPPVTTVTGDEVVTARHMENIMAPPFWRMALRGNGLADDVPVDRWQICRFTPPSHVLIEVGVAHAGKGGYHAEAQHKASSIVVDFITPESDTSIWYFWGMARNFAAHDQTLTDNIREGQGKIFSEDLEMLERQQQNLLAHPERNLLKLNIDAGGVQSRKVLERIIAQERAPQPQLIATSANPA
T1 sequence (Q88GI5 1-316 partner): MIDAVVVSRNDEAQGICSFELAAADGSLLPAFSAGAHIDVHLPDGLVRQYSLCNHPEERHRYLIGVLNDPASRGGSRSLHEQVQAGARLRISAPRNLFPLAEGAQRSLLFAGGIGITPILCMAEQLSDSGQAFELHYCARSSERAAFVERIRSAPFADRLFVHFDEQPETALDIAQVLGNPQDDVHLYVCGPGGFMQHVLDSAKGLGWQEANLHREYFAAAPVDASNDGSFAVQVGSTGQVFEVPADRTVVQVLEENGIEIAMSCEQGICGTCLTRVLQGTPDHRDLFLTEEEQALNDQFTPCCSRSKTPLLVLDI

[2] = biological target: LigM (Sphingobium sp. SYK-6, UniProt G2IQS7); test: whole-cell consumption; type: cell-based; conditions: tetrahydrofolate cofactor; with ligH and metF in R. eutropha H16
LigM, sequence (G2IQS7 whole entry): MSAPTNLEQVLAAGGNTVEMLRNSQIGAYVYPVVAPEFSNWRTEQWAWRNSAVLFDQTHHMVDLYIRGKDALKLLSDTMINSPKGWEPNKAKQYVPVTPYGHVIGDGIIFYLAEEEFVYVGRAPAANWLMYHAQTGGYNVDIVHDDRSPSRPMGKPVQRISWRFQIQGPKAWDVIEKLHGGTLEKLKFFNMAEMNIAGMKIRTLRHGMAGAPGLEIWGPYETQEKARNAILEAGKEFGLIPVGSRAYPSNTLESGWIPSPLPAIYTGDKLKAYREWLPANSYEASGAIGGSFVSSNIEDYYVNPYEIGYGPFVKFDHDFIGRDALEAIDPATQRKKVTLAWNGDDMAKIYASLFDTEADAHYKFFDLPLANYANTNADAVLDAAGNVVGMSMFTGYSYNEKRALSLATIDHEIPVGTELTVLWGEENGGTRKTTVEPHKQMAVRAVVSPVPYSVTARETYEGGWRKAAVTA

Compound: COc1cc(C(=O)O)ccc1O [vanillic acid]
- whole-cell consumption (HPLC) and growth [1]: expression of vanAB could enable the strain to use vanillic acid
- whole-cell consumption (HPLC) and growth [2]: the demethylation process of the optimized LigM system is still the main rate-limiting step
